Here are results for five compounds from paper PMC7143969, “Simultaneous Determination of α-Glucosidase Inhibitory Triterpenoids in Psidium guajava Using HPLC–DAD–ELSD and Pressurized Liquid Extraction” (Molecules, 2020).

Converted amounts (≈) assume the structure as drawn.

For this assay, the target named is α-glucosidase (Saccharomyces cerevisiae, UniProt P53341). Briefly: Inhibition assay of α-glucosidase activity (p-nitrophenyl α-D-glucopyranoside substrate, absorbance at 405 nm). Type of assay: biochemical. The following applies: Mean ± SE, phosphate buffer pH 6.8, 37 °C, 30 min, NI: No Inhibition. The procedure: Methanol and formic acid (HPLC grade) were purchased from Merck (Darmstadt, Germany). The ultra-pure water was purified using a Millipore Milli Q-Plus system (Millipore, Bedford, MA, USA). The α-glucosidase and p-nitrophenyl α-D-glucopyranoside were purchased from Sigma (St. Louis, USA). The enzymatic reaction results were detected on a SpectraMax M5 (Molecular Devices, San Jose, CA, USA).
The inhibition assay of α-glucosidase was measured by the method as described previously. Briefly, a total volume of 150 µL solution consisting of 100 µL phosphate buffer (0.1 M, pH 6.8), 20 µL α-glucosidase (2.4 unit/mg), 20 µL p-nitrophenyl α-D-glucopyranoside and 10 µL different concentration of test sample (12.5–500 µg/mL), was incubated for 30 min under the temperature of 37 °C, then the reaction was stopped by adding 80 µL 0.1 mM Na2CO3. The results were detected under the wavelength of 405 nm on a SpectraMax M5 (Molecular Devices, San Jose, CA, USA). The controlled sample used solvent instead of triterpenoids and the blank sample used buffer instead of α-glucosidase, respectively. The inhibition activity α-glucosidase was calculated by the following equation:Inhibition (%) = [1 − (As − Asb)/(Ac − Acb)] × 100%(2)
Herein, As, Asb, Ac and Acb are absorption of the test sample, sample blank, control and control blank, respectively. Their half maximal inhibitory concentration (IC50) were calculated and compared.

α-glucosidase, sequence (P53341 whole entry): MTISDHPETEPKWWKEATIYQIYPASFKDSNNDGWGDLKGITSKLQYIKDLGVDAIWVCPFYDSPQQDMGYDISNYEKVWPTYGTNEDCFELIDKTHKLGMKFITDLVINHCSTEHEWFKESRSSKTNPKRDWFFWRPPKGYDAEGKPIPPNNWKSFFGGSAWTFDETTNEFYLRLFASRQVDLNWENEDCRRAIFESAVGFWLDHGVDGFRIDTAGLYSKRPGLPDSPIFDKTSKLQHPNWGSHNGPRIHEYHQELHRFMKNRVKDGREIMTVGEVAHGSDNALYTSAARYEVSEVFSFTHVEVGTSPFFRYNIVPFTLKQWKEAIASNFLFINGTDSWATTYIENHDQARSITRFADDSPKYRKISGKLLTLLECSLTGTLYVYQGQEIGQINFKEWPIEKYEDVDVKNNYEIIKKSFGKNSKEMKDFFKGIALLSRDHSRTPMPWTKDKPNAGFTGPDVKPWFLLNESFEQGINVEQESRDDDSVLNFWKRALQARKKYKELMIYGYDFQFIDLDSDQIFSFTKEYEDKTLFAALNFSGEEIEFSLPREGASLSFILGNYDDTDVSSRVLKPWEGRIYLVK

As for `C[C@H]1[C@H](C)CC[C@]2(C(=O)O)CC[C@]3(C)C(=CC[C@@H]4[C@@]5(C)C[C@@H](O)[C@H](OC(=O)/C=C\c6ccc(O)cc6)C(C)(C)[C@@H]5CC[C@]43C)[C@H]12` (relative stereo) [Compound 5, 3β-O-cis-p-coumaroyl-2α-hydroxy-urs-12-en-28-oic acid], the “IC50 (n = 3) against α-Glucosidase” value worked out at 1.54 ± 0.15 µg/mL (≈ 2.49 µM).
With `CC1(C)CCC2(C(=O)O)CCC3(C)C(=CCC4C5(C)CC(O)C(OC(=O)C=Cc6ccc(O)cc6)C(C)(C)C5CCC43C)C2C1` (stereo not drawn) [Compound 4, 3β-O-cis-p-coumaroyl-2α-hydroxy-olean-12-en-28-oic acid], the “IC50 (n = 3) against α-Glucosidase” value stood at 2.25 ± 0.28 µg/mL (≈ 3.64 µM).
In the case of `CC1(C)CCC2(C(=O)O)CCC3(C)C(=CCC4C5(C)CC(O)C(OC(=O)C=Cc6ccc(O)cc6)C(C)(C)C5CCC43C)C2C1` (stereo not drawn) [Compound 6, 3β-O-trans-p-coumaroyl-2α-hydroxy-olean-12-en-28-oic acid] it was 1.93 ± 0.14 µg/mL (≈ 3.12 µM); in that of `C[C@H]1[C@H](C)CC[C@]2(C(=O)O)CC[C@]3(C)C(=CC[C@@H]4[C@@]5(C)C[C@@H](O)[C@H](O)[C@@](C)(CO)[C@@H]5CC[C@]43C)[C@H]12` [Compound 1, asiatic acid], “no inhibition activity”.
For `C[C@H]1[C@H](C)CC[C@]2(C(=O)O)CC[C@]3(C)C(=CCC4[C@@]5(C)C[C@@H](O)[C@H](OC(=O)/C=C/c6ccc(O)cc6)C(C)(C)C5CC[C@]43C)[C@H]12` (relative stereo) [Compound 7, 3β-O-trans-p-coumaroyl-2α-hydroxy-urs-12-en-28-oic acid], the “IC50 (n = 3) against α-Glucosidase” value is given as 2.12 ± 0.15 µg/mL (≈ 3.43 µM).
